Laboratory results published in patent US20070135307A1, “Inhibition of tuber sprouting” (ACETO AGRICULTURAL CHEMICALS CORP., priority 2005, published 2007).

Columns and labels:
[1] = test system: Russet Norkotah potato tubers; assay: Sprout inhibition of stored potato tubers, Russet Norkotah (% OK for fresh pack); type: in vivo, Solanum tuberosum
Description: (§1) The storage system was designed to duplicate a large commercial storage facility in miniature. Drums containing 150-200 pounds of potatoes were sealed and housed in a building in which temperature and humidity could be controlled. Formed in each drum is an inlet in which untreated air (ventilation air) was introduced under a perforated floor to the drum. The ventilation air moves through the pile of potatoes and is exhausted from the top of the drum to the outside of the building.
(§2) This storage ventilation was shut down for a 24 hour duration during and directly after the treatment of the chemicals. Then it is maintained for the duration of the trial, with ventilation air forced through the drums at a rate of 0.5 cubic feet per minute on a three-hour on and a three-hour off schedule.
(§3) In the spray application technique the formulations were mixed with water and sprayed on the newly harvested tubers at a rate of 5 and 10 parts per million (weight of the active to weight of the potatoes) mixed in a water carrier. The mixture was applied at 1 quart per ton of potatoes. The spray was applied via a hand held spray gun propelled with compressed air as the tubers were rotating in a cement mixer drum. This insured that all surface area is coated with the active ingredient.
(§4) The Fogs were all applied with thermal foggers built to duplicate applications of commercial thermal fogging techniques.
(§5) The custom thermal fogger's heat source was an electric hot plate set at 500 degrees F. This temperature is monitored throughout the application with a thermal couple that is inserted in a cavity just below the surface where the chemical is placed. A chamber was attached to the hot plate. A fan was mounted to the top of the chamber. The fogger was attached to the storage container with flexible tubing.
(§6) The fog was delivered to each drum through separate ports. Through the bottom port of the storage drum a perforated stinger was installed that runs the length of the drum. Flexible tubing delivered the fog air mixture from the fogger. The fog air mixture was returned to the thermal fogger through a second flexible tubing that was attached from the top of the storage drum to the bottom of the thermal fogger. The air fog mixture was recirculated through the system for five minutes.
(§7) The potatoes were monitored for sprout activity on a regular basis after treatment. When early sprout activity was observed the potatoes were first evaluated. Then at approximately 30 day intervals, 60 tubers were randomly selected from each treatment. Each tuber was rated for the length of the longest sprout on each tuber. The scale used for the rating system as is follows: • 0-Not Peeping=no sprout or swelling of eye tissue evident. • 1-Peeping=swelling of eye tissue up to a sprout length of 3 mm • 2-sprout length from 3 mm to […]. • 3-sprout length from 1 cm to 3 cm. • 4-sprout length from 3 cm to 5 cm. • 5-sprout length from 5 cm and longer
(§8) Results of each set of 60 tubers were recorded into 6 subsets of 10 tubers each (replicates). The data is summarized into PERCENT OK RE: FRESHPCK (Fresh pack). The PERCENT OK RE: FRESHPCK is the percent of the tubers that are NOT PEEPING and PEEPING categories combined together (i.e., the addition of the percentage of potatoes rated that are in the “0”-Not peeping=(no sprout or swelling of the eye tissue evident) plus “1” Peeping=(swelling of the eye tissue up to a sprout length of 3 mm.).
(§9) Analysis times are approximate days after harvest (DAH)

[2] = test system: Russet Burbank potato tubers; assay: Sprout inhibition of stored potato tubers, Russet Burbank (% OK for fresh pack); type: in vivo, Solanum tuberosum
Description: as §1, §2, §3, §4, §5, §6, §7, §8, §9

Row | SMILES | % OK For Fresh Pack, Dormant + sprout up to 3 mm ([1]; 5 ppm Spray, 53 DAH) [%] | % OK For Fresh Pack, Dormant + sprout up to 3 mm ([1]; 5 ppm Spray, 85 DAH) [%] | % OK For Fresh Pack, Dormant + sprout up to 3 mm ([1]; 5 ppm Spray, 107 DAH) [%] | % OK For Fresh Pack, Dormant + sprout up to 3 mm ([1]; 10 ppm Spray, 53 DAH) [%] | % OK For Fresh Pack, Dormant + sprout up to 3 mm ([1]; 10 ppm Spray, 85 DAH) [%] | % OK For Fresh Pack, Dormant + sprout up to 3 mm ([1]; 10 ppm Spray, 107 DAH) [%] | % OK For Fresh Pack, Dormant + sprout up to 3 mm ([2]; 5 ppm Spray, 132 DAH) [%] | % OK For Fresh Pack, Dormant + sprout up to 3 mm ([2]; 5 ppm Spray, 161 DAH) [%] | % OK For Fresh Pack, Dormant + sprout up to 3 mm ([2]; 5 ppm Spray, 191 DAH) [%] | % OK For Fresh Pack, Dormant + sprout up to 3 mm ([2]; 5 ppm Spray, 223 DAH) [%] | % OK For Fresh Pack, Dormant + sprout up to 3 mm ([2]; 5 ppm Spray, 252 DAH) [%] | % OK For Fresh Pack, Dormant + sprout up to 3 mm ([2]; 5 ppm Spray, 283 DAH) [%] | also measured
1 | O=C(O)CCCOc1ccc(Cl)cc1Cl [2,4 DB, Dimethyl Amine of 4-(2,4-Dichloropenoxy) butyric acid] | 81.7 | 3.3 | 0.0 | 91.7 | 11.7 | 0.0 |  |  |  |  |  |  | 
2 | CC(C)OC(=O)Nc1cccc(Cl)c1 [CIPC 98A, isopropyl 3-chlorophenylcarbamate] |  |  |  |  |  |  |  |  |  |  |  |  | % OK For Fresh Pack, Dormant + sprout up to 3 mm ([2]; 11 ppm Fog, 132 DAH): 100.0%; % OK For Fresh Pack, Dormant + sprout up to 3 mm ([2]; 11 ppm Fog, 161 DAH): 26.7%; % OK For Fresh Pack, Dormant + sprout up to 3 mm ([2]; 11 ppm Fog, 191 DAH): 0.0%; % OK For Fresh Pack, Dormant + sprout up to 3 mm ([2]; 11 ppm Fog, 223 DAH): 0.0%; % OK For Fresh Pack, Dormant + sprout up to 3 mm ([2]; 11 ppm Fog, 252 DAH): 0.0%; % OK For Fresh Pack, Dormant + sprout up to 3 mm ([2]; 11 ppm Fog, 283 DAH): 0.0%; % OK For Fresh Pack, Dormant + sprout up to 3 mm ([2]; 16.6 ppm Fog, 132 DAH): 100.0%; % OK For Fresh Pack, Dormant + sprout up to 3 mm ([2]; 16.6 ppm Fog, 161 DAH): 26.7%; % OK For Fresh Pack, Dormant + sprout up to 3 mm ([2]; 16.6 ppm Fog, 191 DAH): 0.0%; % OK For Fresh Pack, Dormant + sprout up to 3 mm ([2]; 16.6 ppm Fog, 223 DAH): 0.0%; % OK For Fresh Pack, Dormant + sprout up to 3 mm ([2]; 16.6 ppm Fog, 252 DAH): 0.0%; % OK For Fresh Pack, Dormant + sprout up to 3 mm ([2]; 16.6 ppm Fog, 283 DAH): 0.0%
3 | CCNC(=O)[C@@H](C)OC(=O)Nc1ccccc1 [Car, Ethyl-2-(((phenylamino)carbonyl)oxy)promanamide] |  |  |  |  |  |  | 93.3 | 8.3 | 0.0 | 0.0 | 0.0 | 0.0 | 
4 | C#CC(C)(C)NC(=O)c1cc(Cl)cc(Cl)c1 [PRO, 3,5-dichloro-N-(1,1-dimethyl-2-propynyl)benzamide] | 100.0 | 90.0 | 18.3 | 100.0 | 80.0 | 28.3 | 100.0 | 83.3 | 71.7 | 61.7 | 60.0 | 50.0 | 
5 | CC(=O)Nc1cc(NS(=O)(=O)C(F)(F)F)c(C)cc1C [MEF, N-[2,4-dimethyl-5-[[(trifluoromethyl)sulfonyl]amino]phenyl]acetamide] | 81.7 | 11.7 | 0.0 | 93.3 | 13.3 | 0.0 |  |  |  |  |  |  | 
6 | CCOC1Oc2ccc(OS(C)(=O)=O)cc2C1(C)C (racemic) [ETH, (RS)-2-ethoxy-2,3-dihydro-3,3-dimethylbenzofuran-5-yl methanesulfonate] | 68.3 | 11.7 | 0.0 | 93.3 | 33.3 | 3.3 |  |  |  |  |  |  | 
7 | CC(C)OC(=O)Nc1cccc(Cl)c1 [CIPC A, isopropyl 3-chlorophenylcarbamate] |  |  |  |  |  |  |  |  |  |  |  |  | % OK For Fresh Pack, Dormant + sprout up to 3 mm ([1]; 16.6 ppm Fog, 53 DAH): 100.0%; % OK For Fresh Pack, Dormant + sprout up to 3 mm ([1]; 16.6 ppm Fog, 85 DAH): 86.7%; % OK For Fresh Pack, Dormant + sprout up to 3 mm ([1]; 16.6 ppm Fog, 107 DAH): 86.7%
8 | CCCCC(CC)COC(=O)COc1ccc(Cl)cc1Cl (stereo not drawn) [2,4 D LV, Isoocotyl (2-ethylhexyl) ester of 2,4-dichlorophenoxyacetic acid] |  |  |  |  |  |  | 96.7 | 30.0 | 8.3 | 0.0 | 0.0 | 0.0 | 
9 | CC(C)(C)[C@@H](O)[C@@H](Cc1ccc(Cl)cc1)n1cncn1 (racemic) [PAC, (2RS,3RS)-1-(4-chlorophenyl)-4,4-dimethyl-2-(1H-1,2,4-triazol-1-yl)pentan-3-ol] | 93.3 | 13.3 | 1.7 | 86.7 | 13.3 | 0.0 |  |  |  |  |  |  | 
